# Experimental data reported in ChEMBL document CHEMBL3351656, “Discovery of novel 2-[2-(3-hydroxy-pyridin-2-yl)-thiazol-4-yl]-acetamide derivatives as HIF prolyl 4-hydroxylase inhibitors; SAR, synthesis and modeling evaluation” (Bioorg Med Chem Lett, 2014).
# Experiment: Solubility of the compound at pH 7.4
# Format: physicochemical
# Conditions: buffer
row,SMILES,solubility [µg/mL]
1,CCNC(=O)Cc1nc(-c2ncc(C#N)c(C)c2O)sc1C,13.9
2,N#Cc1cnc(-c2nc(CC(=O)N[C@H](CO)c3ccccc3)cs2)c(O)c1,> 188
3,Cc1c(C#N)cnc(-c2nc(CC(=O)NCCc3ccccn3)c(-c3ccccc3)s2)c1O,0.74
4,N#Cc1cnc(-c2nc(CC(=O)NCCc3ccccn3)c(-c3ccccc3)s2)c(O)c1,117
5,N#Cc1cnc(-c2nc(CC(=O)N[C@@H](CO)c3ccccc3)cs2)c(O)c1,> 188
6,CCN(CC)CCNC(=O)Cc1nc(-c2ncc(C#N)c(C)c2O)sc1C,85.9
7,N#Cc1cnc(-c2nc(CC(=O)N3CCCC3)cs2)c(O)c1,108
8,Cc1c(C#N)cnc(-c2nc(CC(=O)NCCc3ccccn3)cs2)c1O,11.2
9,CCN(CC)CCNC(=O)Cc1csc(-c2ncc(C#N)c(C)c2O)n1,> 185
10,Cc1sc(-c2ncc(C#N)c(C)c2O)nc1CC(=O)NCCc1ccccn1,6.4
11,Cc1sc(-c2ncc(C#N)cc2O)nc1CC(=O)NCCc1ccccn1,78.4

# Further lines, results first:
row,solubility [µg/mL],SMILES
1,> 195,N#Cc1cnc(-c2nc(CC(=O)N[C@H](C(=O)O)c3ccccc3)cs2)c(O)c1
2,> 181,N#Cc1cnc(-c2nc(CC(=O)NCCc3ccccn3)cs2)c(O)c1
3,13.6,N#Cc1cnc(-c2nc(CC(=O)NCCc3ccccc3)cs2)c(O)c1
4,> 195,N#Cc1cnc(-c2nc(CC(=O)N[C@@H](C(=O)O)c3ccccc3)cs2)c(O)c1
5,24.1,N#Cc1cnc(-c2nc(CC(=O)NCc3ccccc3)cs2)c(O)c1
6,28.9,CC(C)(NC(=O)Cc1csc(-c2ncc(C#N)cc2O)n1)C(=O)O
7,106,N#Cc1cnc(-c2nc(CC(=O)NCC(=O)O)cs2)c(O)c1
